Assay results published in publication PMC3411462, “Long-acting κ opioid antagonists nor-BNI, GNTI and JDTic: pharmacokinetics in mice and lipophilicity” (BMC Pharmacology, 2012).
Where “and” joins values, the source holds several entries; their conditions need not be identical. Equal entries are not always repeated. Entries after “also recorded” stand apart in the source; their conditions may differ. Where two headings read alike, the source gives them in different places.

How the values were obtained:
[1] = Brain and plasma concentrations in mice after intraperitoneal administration (LC-MS-MS), non-compartmental analysis; format: in vivo; conditions: for [drug],plasma (free base equivalent): listed as GNTI.2HCl.H2O; for [drug],plasma (free base equivalent) / concentration at 0.5 h / concentration at 1 h / concentration at 2 h / concentration at 4 h / concentration at 24 h / AUC(0-inf) / CL/F / Vd/F: 10 mg/kg
Protocol: Doses are reported by weight of the specified salt. […] Body mass was measured to ±0.1 g.
Mice were sacrificed by cervical dislocation, then decapitated for collection of brain and blood samples. Trunk blood was collected in 1.5 mL polypropylene micro-centrifuge tubes, shaken with a few crystals of EDTA and cooled in ice-water. Samples were centrifuged at 14,000 rpm (revolutions per minute) for 15 minutes at 3 °C, then stored in glass sample vials at −20 °C until analysis. Brains were removed and immersed for 30 seconds in 2-methylbutane over dry ice, then stored in polypropylene tubes at −20 °C until sample preparation. Sample tubes were thawed in ice-water, distilled water was added (2:1 by weight) and the brain homogenized with a probe sonicator for 3 minutes over ice-water (Fisher Sonic Dismembrator 300 at 35% power). The probe was rinsed with ethanol and distilled water between samples. Brain homogenate was stored in glass sample vials at −20 °C until analysis by LC-MS-MS.
Drug concentrations (ng mL^-1) refer to the free base, and were measured by liquid chromatography-tandem mass spectrometry (LC-MS-MS) as described previously. Briefly, samples were shaken with 3 volumes of methanol and centrifuged at 3000 g. Aliquots of the supernatants were diluted with 5 volumes of water containing an appropriate internal standard. Extracts from in vitro and in vivo experiments were analyzed by multiple reaction monitoring on an API3000 or API4000 LC-MS-MS system with electrospray ion source, controlled and analyzed using the Analyst software package (Applied Biosystems, Foster City, CA). Chromatography was conducted on a Sprite Armor C18 analytical column (20 × 2.1 mm, 10 μm particle size, Analytical Sales and Products, Pompton Plains, NJ) with a 0.5 μm PEEK guard filter. Compounds were eluted with a gradient from 2% to 95% acetonitrile in water, both containing 0.1% formic acid. Compounds were detected in positive ion mode, tuned to the mass transition with the largest intensity. Analyte concentrations were determined by comparison of analyte:internal standard peak area ratios to those of standards prepared in the appropriate matrices.
For calculation of mean concentrations, the earliest values below the MRC were substituted by MRC ÷ 2, as recommended elswhere. Pharmacokinetic parameters were calculated from mean concentrations using PKSolver, employing non-compartmental analysis for extravascular administration. Curves in figures were fitted using Origin 8.5 (OriginLab, Northampton, MA) using 2-compartment models. Confidence intervals and two-tailed p values (unpaired t test) were calculated using Graphpad Quickcalcs. One outlier was identified using Grubbs' test (p < 0.01) and excluded from the analysis; see Additional file 1.

[2] = Plasma binding (unbound fraction by ultracentrifugation); format: in vitro ADME; conditions: 5 μM drug, mean, n = 3
Protocol: Unbound fractions in brain homogenate and plasma were determined by ultracentrifugation as described previously. Briefly, drug-spiked matrices (5 μM drug in plasma or brain homogenate) were centrifuged at 600,000 g for 5 h at 37 °C (plasma) or 5 °C (brain). Aliquots of the middle (water) layer were added to an equal volume of blank matrix and extracted with 5 volumes of acetonitrile containing internal standard. Aliquots of the original spiked matrix were mixed with an equal volume of blank matrix and 2 volumes of plasma ultrafiltrate (plasma) or phosphate-buffered saline (tissue) and extracted with 10 volumes of acetonitrile. Extracts were centrifuged and analyzed by LC-MS-MS. Fraction unbound was calculated from the ratio of concentration in the water layer to that in the original spiked matrix, corrected for dilution as described previously.

P-gp (human MDR1) = biological target: T1, P-gp (human MDR1) (Homo sapiens, UniProt P08183); experiment: LLC-PK1-MDR1 cell permeation and efflux; format: in vitro ADME
T1 construct: expressed in transfected cells; host or cells: LLC-PK1 (pig kidney epithelial cells) transfected with human MDR1 at Amgen
T1 sequence (P08183 whole entry): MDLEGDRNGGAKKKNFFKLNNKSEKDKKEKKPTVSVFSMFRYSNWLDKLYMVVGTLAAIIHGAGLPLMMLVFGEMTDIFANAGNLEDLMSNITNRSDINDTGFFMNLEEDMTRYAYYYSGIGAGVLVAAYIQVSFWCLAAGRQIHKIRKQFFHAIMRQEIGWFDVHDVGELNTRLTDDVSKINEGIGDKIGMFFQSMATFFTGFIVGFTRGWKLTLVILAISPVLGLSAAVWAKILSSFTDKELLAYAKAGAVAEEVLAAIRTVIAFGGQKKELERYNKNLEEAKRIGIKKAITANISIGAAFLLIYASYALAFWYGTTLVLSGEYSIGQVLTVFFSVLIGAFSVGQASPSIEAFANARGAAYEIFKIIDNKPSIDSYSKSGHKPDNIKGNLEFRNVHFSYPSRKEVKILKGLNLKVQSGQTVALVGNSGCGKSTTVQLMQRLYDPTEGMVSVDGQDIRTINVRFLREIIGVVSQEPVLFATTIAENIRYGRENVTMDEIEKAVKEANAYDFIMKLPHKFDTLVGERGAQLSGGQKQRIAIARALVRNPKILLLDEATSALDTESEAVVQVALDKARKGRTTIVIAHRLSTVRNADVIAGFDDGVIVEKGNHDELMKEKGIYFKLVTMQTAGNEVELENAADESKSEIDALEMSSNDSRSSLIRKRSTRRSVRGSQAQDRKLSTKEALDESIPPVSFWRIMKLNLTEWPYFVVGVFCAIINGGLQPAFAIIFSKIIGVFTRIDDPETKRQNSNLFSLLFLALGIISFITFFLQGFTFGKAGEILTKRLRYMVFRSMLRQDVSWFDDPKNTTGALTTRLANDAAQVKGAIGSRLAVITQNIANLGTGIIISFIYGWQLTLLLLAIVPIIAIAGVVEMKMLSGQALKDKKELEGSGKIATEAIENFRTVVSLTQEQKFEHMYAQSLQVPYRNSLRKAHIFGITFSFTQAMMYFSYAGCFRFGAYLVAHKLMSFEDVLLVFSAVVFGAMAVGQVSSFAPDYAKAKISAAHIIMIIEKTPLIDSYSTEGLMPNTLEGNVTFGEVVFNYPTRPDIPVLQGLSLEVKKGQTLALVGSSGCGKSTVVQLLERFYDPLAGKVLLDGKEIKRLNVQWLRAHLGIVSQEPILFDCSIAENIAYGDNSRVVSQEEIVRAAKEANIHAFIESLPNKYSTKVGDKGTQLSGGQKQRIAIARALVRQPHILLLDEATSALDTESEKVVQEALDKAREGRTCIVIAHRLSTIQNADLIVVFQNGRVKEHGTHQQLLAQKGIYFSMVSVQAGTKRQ
Protocol: (§1) Pig kidney epithelial cells (LLC-PK1) were obtained from American Type Culture Collection (Manassas, VA). Transfection with human MDR1 gene was conducted at Amgen (Thousand Oaks, CA). Bi-directional permeation assays were performed as described previously. […] Cells were seeded onto Transwell filter membranes (0.4 μm pore size, surface area = 0.7 cm2) at a density of 200,000 cells/well. Compound incubations (in duplicate) were performed 5 days post-seeding. To determine efflux, compounds were tested at 5 μM in the presence of 0.1% BSA. […] Samples were analyzed by LC-MS-MS.

human P-gp = biological target: T2, human P-gp (Homo sapiens, UniProt P08183); experiment: LLC-PK1-MDR1 cell permeation and efflux; format: in vitro ADME; conditions: cells expressing human P-gp
T2 construct: expressed in transfected cells; host or cells: LLC-PK1 (pig kidney epithelial cells) transfected with human MDR1 at Amgen
T2 sequence (P08183 whole entry): as above
Protocol: as §1

mice = experiment: Fatalities and behavioral effects after i.p. administration
Protocol: Experiments were performed between 10 am and 6 pm. Mice were not used in other experiments, or exposed to other drugs, before testing began.
Doses are reported by weight of the specified salt. Intraperitoneal injections were administered in distilled water vehicle (10 mL kg^-1). Body mass was measured to ±0.1 g. Some values were inadvertently measured on a low-precision balance (± 2.5 g); these timepoints were replicated at ±0.1 g.

[3] = 0.5 h, 10 mg/kg i.p., individual mice
[4] = 1 h, 10 mg/kg i.p., individual mice
[5] = 2 h, 10 mg/kg i.p., individual mice
[6] = male, Swiss-Webster, mouse, ip, plasma NCA, 10 mg/kg i.p.

N=C(N)Nc1ccc2[nH]c3c(c2c1)C[C@@]1(O)[C@H]2Cc4ccc(O)c5c4[C@@]1(CCN2CC1CC1)[C@H]3O5 [GNTI, 5’-guanidinonaltrindole]
Time of maximal mean plasma level ([1]; 10 mg kg^-1 i.p., mice): 30 min
[drug],brain (free base equivalent) [1, 3]: <120 ng/g
[drug],plasma (free base equivalent) [1, 3]: 3610 ng/mL and 1790 ng/mL and 3840 ng/mL
[drug],brain (free base equivalent) [1, 4]: <120 ng/g
[drug],plasma (free base equivalent) [1, 4]: 1750 ng/mL and 2420 ng/mL and 4880 ng/mL
[drug],brain (free base equivalent) [1, 5]: <120 ng/g
[drug],plasma (free base equivalent) [1, 5]: 1120 ng/mL and 3700 ng/mL and 2910 ng/mL
[drug],plasma (free base equivalent) ([1]; 4 h, 10 mg/kg i.p., individual mice): 114 ng/mL and 206 ng/mL
[drug],plasma (free base equivalent) ([1]; 24 h, 10 mg/kg i.p., individual mice): <13 ng/mL
Brain levels (below MRC) ([1]; all timepoints, 10 mg kg^-1 i.p.): < 120 ng/mL
C max,brain ([1]; brain, 10 mg kg^-1 i.p., mice): < 120 ng/mL
Decline of mean plasma concentration from peak ([1]; by 24 hours, 10 mg kg^-1 i.p.): at least 98%
Kp uu ([1]; male, Swiss-Webster, mouse, brain and plasma (unbound), intraperitoneal, postmortem samples, 13–18 minutes after 39 mg kg^-1 GNTI·2CF3CO2H, read-out: Cmax,brain,u/Cmax,p,u): < 0.0007
Kp ([1]; male, Swiss-Webster, mouse, brain and plasma, intraperitoneal, postmortem samples, 13–18 minutes after 39 mg kg^-1 GNTI·2CF3CO2H, read-out: Cmax,brain/Cmax,p): 0.0085
concentration at 0.5 h ([1]; male, Swiss-Webster, mouse, brain, ip, 0.5 h, 10 mg/kg i.p., individual mice, read-out: [drug],brain (free base equivalent)): < 120 ng/g
concentration at 0.5 h ([1]; male, Swiss-Webster, mouse, brain, ip, 0.5 h, 10 mg/kg i.p., read-out: mean (brain)): < 120 ng/g
concentration at 1 h ([1]; male, Swiss-Webster, mouse, brain, ip, 1 h, 10 mg/kg i.p., individual mice, read-out: [drug],brain (free base equivalent)): < 120 ng/g
concentration at 2 h ([1]; male, Swiss-Webster, mouse, brain, ip, 2 h, 10 mg/kg i.p., individual mice, read-out: [drug],brain (free base equivalent)): < 120 ng/g
Tmax ([1]; male, Swiss-Webster, mouse, in vivo, ip, ·2HCl salts, 10 mg kg^-1 i.p., mice): 0.5 h
AUC(0-t) [1, 6]: 9450 ng·h/mL
Tmax [1, 6]: 0.5 h
k el ([1]; male, Swiss-Webster, mouse, ip, plasma NCA, 10 mg/kg i.p., read-out: Lambda_z (converted)): 6.68e-05 s⁻¹
MRT inf ([1]; male, Swiss-Webster, mouse, ip, plasma NCA, 10 mg/kg i.p., read-out: MRT 0-inf_obs): 2.18 h
half-life ([1]; male, Swiss-Webster, mouse, ip, plasma NCA, 10 mg/kg i.p., read-out: t1/2 (converted)): 2.88 h
Cmax ([1]; male, Swiss-Webster, mouse, ip, plasma, 10 mg kg^-1 i.p., mice, read-out: C max,p): 3080 ng/mL
concentration at 0.5 h ([1]; male, Swiss-Webster, mouse, plasma, intraperitoneal, 0.5 h, read-out: Conc (plasma, NCA input)): 3080 ng/mL
concentration at 1 h ([1]; male, Swiss-Webster, mouse, plasma, intraperitoneal, 1 h, read-out: Conc (plasma, NCA input)): 3020 ng/mL
concentration at 2 h ([1]; male, Swiss-Webster, mouse, plasma, intraperitoneal, 2 h, read-out: Conc (plasma, NCA input)): 2580 ng/mL
concentration at 4 h ([1]; male, Swiss-Webster, mouse, plasma, intraperitoneal, 4 h, read-out: Conc (plasma, NCA input)): 154 ng/mL
concentration at 24 h ([1]; male, Swiss-Webster, mouse, plasma, intraperitoneal, 24 h, read-out: Conc (plasma, NCA input)): 8.8 ng/mL
concentration at 0.5 h ([1]; male, Swiss-Webster, mouse, plasma, ip, 0.5 h, 10 mg/kg i.p., read-out: mean (plasma)): 3080 ng/mL
concentration at 1 h ([1]; male, Swiss-Webster, mouse, plasma, ip, 1 h, 10 mg/kg i.p., read-out: mean (plasma)): 3020 ng/mL
concentration at 2 h ([1]; male, Swiss-Webster, mouse, plasma, ip, 2 h, 10 mg/kg i.p., read-out: mean (plasma)): 2580 ng/mL
concentration at 4 h ([1]; male, Swiss-Webster, mouse, plasma, ip, 4 h, 10 mg/kg i.p., individual mice, read-out: [drug],plasma (free base equivalent)): 142 ng/mL
concentration at 4 h ([1]; male, Swiss-Webster, mouse, plasma, ip, 4 h, 10 mg/kg i.p., read-out: mean (plasma)): 154 ng/mL
concentration at 24 h ([1]; male, Swiss-Webster, mouse, plasma, ip, 24 h, 10 mg/kg i.p., individual mice, read-out: [drug],plasma (free base equivalent)): 13 ng/mL
concentration at 24 h ([1]; male, Swiss-Webster, mouse, plasma, ip, 24 h, 10 mg/kg i.p., <MRC substituted by MRC/2, read-out: mean (plasma)): 9 ng/mL
AUC(0-inf) ([1]; male, Swiss-Webster, mouse, plasma, ip, plasma NCA, 10 mg/kg i.p., read-out: AUC 0-inf_obs): 9490 ng·h/mL
CL/F ([1]; male, Swiss-Webster, mouse, plasma, ip, plasma NCA, 10 mg/kg i.p., read-out: Cl/F_obs (converted)): 17.6 mL/min/kg
Vd/F ([1]; male, Swiss-Webster, mouse, plasma, ip, plasma NCA, 10 mg/kg i.p., read-out: Vz/F_obs): 4.38 L/kg
AUC(0-inf) ([1]; male, Swiss-Webster, mouse, plasma, ip, plasma, 10 mg kg^-1 i.p., non-compartmental analysis, read-out: AUC 0–∞,p): 9490 ng·h/mL
CL/F ([1]; male, Swiss-Webster, mouse, plasma, ip, plasma, 10 mg kg^-1 i.p., non-compartmental analysis, read-out: CL/F (converted)): 16.7 mL/min/kg
Vd/F ([1]; male, Swiss-Webster, mouse, plasma, ip, plasma, 10 mg kg^-1 i.p., non-compartmental analysis, read-out: V z /F): 4.4 L/kg
AUMC 0-inf_obs ([1]; plasma NCA, 10 mg/kg i.p.): 20681.1 ng/ml*h^2
Tlag ([1]; plasma NCA, 10 mg/kg i.p.): 0 h
C max,brain,u ([1]; unbound brain, 10 mg kg^-1 i.p., in vivo brain binding assumed at least 3-fold greater than homogenate): < 6 nM
fraction unbound at 5 h, 5 μM [2]: 0.28
Papp A→B at 120 min, 5 μM (P-gp (human MDR1); pig (LLC-PK1 cells) transfected with human MDR1, LLC-PK1, apical to basolateral, 5 μM, 0.1% BSA, 120 min, n = 2): 0.4 ×10⁻⁶ cm/s
Papp B→A at 120 min, 5 μM (P-gp (human MDR1); pig (LLC-PK1 cells) transfected with human MDR1, LLC-PK1, basolateral to apical, 5 μM, 0.1% BSA, 120 min, n = 2): 0.6 ×10⁻⁶ cm/s
efflux ratio at 120 min, 5 μM (P-gp (human MDR1); pig (LLC-PK1 cells) transfected with human MDR1, LLC-PK1-MDR1 monolayers, read-out: Efflux ratio (B → A/A → B)): 1.5
Active transport / P-gp-mediated efflux (human P-gp): did not; also recorded: No active transport
Fatalities (mice; 10 mg kg^-1, 15 mice monitored for at least 30 minutes): no fatalities
Time to death after injection (mice; 30 mg kg^-1): ≤ 11 min
Fatalities (mice; 30 mg kg^-1, three mice): all three mice unexpectedly became ataxic, followed by convulsions and death
